Assay results published in US20170306409A1, “CANCER PATIENT SELECTION FOR ADMINISTRATION OF WNT SIGNALING INHIBITORS USING RNF43 MUTATION STATUS” (NOVARTIS AG, priority 2012, published 2017).

Key:
Type in all cases: cell-based, human
Axin2, BxPC3 = experiment: Axin2 qPCR assay (pathway inhibition)
Protocol: (§1) For reverse transcription and quantitative PCR (qPCR), total RNA was extracted from cells or tumors using the RNeasy Plus Mini Kit (Qiagen). 1 μg of RNA were reverse transcribed with Taqman Reverse Transcription Reagents (Applied Biosystems) according to the manufacturer's instruction. Quantitative PCR was performed in 12 μl reactions consisting of 0.6 μl of 20× Taqman probe and PCR primer mix, 6 μl 2× Taqman FAST Advanced Master Mix (Applied Biosystems), and 5.4 μl diluted cDNA template. The thermocycling conditions utilized were 20 seconds at 95° C., followed by 40 cycles of 1 second at 95° C. and 20 seconds at 60° C. All experiments were performed in quadruplicates. Gene expression analysis was performed using the comparative ΔΔCT method and normalized with the housekeeping gene GUSB or 18S. The Taqman probes were purchased from Applied Biosystems.

Axin2, CFPAC-1 = experiment: Axin2 qPCR assay (pathway inhibition)
Protocol: as §1

Axin2, Capan-1 = experiment: Axin2 qPCR assay (pathway inhibition)
Protocol: as §1

Axin2, Capan-2 = experiment: Axin2 qPCR assay (pathway inhibition)
Protocol: as §1

Axin2, DanG = experiment: Axin2 qPCR assay (pathway inhibition)
Protocol: as §1

Axin2, HPAFII = experiment: Axin2 qPCR assay (pathway inhibition)
Protocol: as §1

Axin2, HuPT3 = experiment: Axin2 qPCR assay (pathway inhibition)
Protocol: as §1

Axin2, HuPT4 = experiment: Axin2 qPCR assay (pathway inhibition)
Protocol: as §1

Axin2, KP-1NL = experiment: Axin2 qPCR assay (pathway inhibition)
Protocol: as §1

Axin2, KP1-N = experiment: Axin2 qPCR assay (pathway inhibition)
Protocol: as §1

Axin2, KP3 = experiment: Axin2 qPCR assay (pathway inhibition)
Protocol: as §1

Axin2, KP4 = experiment: Axin2 qPCR assay (pathway inhibition)
Protocol: as §1

Axin2, L3.3 = experiment: Axin2 qPCR assay (pathway inhibition)
Protocol: as §1

Axin2, MIA CaPa-2 = experiment: Axin2 qPCR assay (pathway inhibition)
Protocol: as §1

Axin2, PANC-1 = experiment: Axin2 qPCR assay (pathway inhibition)
Protocol: as §1

Axin2, PK1 = experiment: Axin2 qPCR assay (pathway inhibition)
Protocol: as §1

Axin2, PK45H = experiment: Axin2 qPCR assay (pathway inhibition)
Protocol: as §1

Axin2, PK59 = experiment: Axin2 qPCR assay (pathway inhibition)
Protocol: as §1

Axin2, PL45 = experiment: Axin2 qPCR assay (pathway inhibition)
Protocol: as §1

Axin2, PSN-1 = experiment: Axin2 qPCR assay (pathway inhibition)
Protocol: as §1

Axin2, PaTu-8902 = experiment: Axin2 qPCR assay (pathway inhibition)
Protocol: as §1

Axin2, PaTu-8988S = experiment: Axin2 qPCR assay (pathway inhibition)
Protocol: as §1

Axin2, Panc03.27 = experiment: Axin2 qPCR assay (pathway inhibition)
Protocol: as §1

Axin2, Panc04.03 = experiment: Axin2 qPCR assay (pathway inhibition)
Protocol: as §1

Axin2, Panc05.04 = experiment: Axin2 qPCR assay (pathway inhibition)
Protocol: as §1

Axin2, Panc10.05 = experiment: Axin2 qPCR assay (pathway inhibition)
Protocol: as §1

Axin2, QGP-1 = experiment: Axin2 qPCR assay (pathway inhibition)
Protocol: as §1

Axin2, SU86.86 = experiment: Axin2 qPCR assay (pathway inhibition)
Protocol: as §1

Axin2, SUIT-2 = experiment: Axin2 qPCR assay (pathway inhibition)
Protocol: as §1

Axin2, SW1990 = experiment: Axin2 qPCR assay (pathway inhibition)
Protocol: as §1

Axin2, T3M4 = experiment: Axin2 qPCR assay (pathway inhibition)
Protocol: as §1

HPAFII = experiment: soft agar assay; details: 1 μM LGK974
Protocol: (§2) Further, LGK974 induced the expression of differentiation marker MUC2, MUC5A/C in RNF43 mutant cells. LGK974 blocked EDU incorporation in RNF43 mutant cell lines, so Wnt inhibition in these cells leads to cell cycle arrest. LGK974-induced growth inhibition and cellular differentiation of RNF43 mutant cells are also obvious using Ki67 staining (anti-Ki67 (SP6) from Vector Laboratories, Burlingame, Calif., USA 94010) and Alcian Blue staining.
(§3) For soft agar assay, cells were suspended in 250 μl of 0.3% low melting agarose (Lonza) in DMEM containing 10% FBS, and plated onto 250 μl of solidified 0.8% agarose containing DMEM in 48-well culture plates at a density of 5,000-10,000 cells per well. 250 μl of growth medium were added on top of the cells after plate was cooled at Rt for 30 minutes. The plate was then incubated at 37° C. in a humidified atmosphere containing 5% CO2. The cells were treated with fresh growth medium containing DMSO or 1 μM LGK974 every 3-4 days. When colonies reached desirable size, photographs were taken and colonies were stained with AlamarBlue (from Invitrogen, Life Technologies, Grand Island, N.Y., USA 14072) according to the manufacturer's instruction. These experiments were repeated three times, and at least four wells were replicated each time for each condition.

PK1 = experiment: soft agar assay; details: 1 μM LGK974
Protocol: as §2, §3

PaTu-8988S = experiment: soft agar assay; details: 1 μM LGK974
Protocol: as §2, §3

Cc1cc(-c2ncc(CC(=O)Nc3ccc(-c4cnccn4)cn3)cc2C)ccn1 [LGK974, 2-[5-methyl-6-(2-methylpyridin-4-yl)pyridin-3-yl]-N-[5-(pyrazin-2-yl)pyridin-2-yl]acetamide]
No: Pathway inhibition in Axin2 qPCR assay (Axin2, CFPAC-1) | Pathway inhibition in Axin2 qPCR assay (Axin2, Capan-1) | Pathway inhibition in Axin2 qPCR assay (Axin2, DanG) | Pathway inhibition in Axin2 qPCR assay (Axin2, HuPT4) | Pathway inhibition in Axin2 qPCR assay (Axin2, KP4) | Pathway inhibition in Axin2 qPCR assay (Axin2, L3.3) | Pathway inhibition in Axin2 qPCR assay (Axin2, MIA CaPa-2) | Pathway inhibition in Axin2 qPCR assay (Axin2, PK45H) | Pathway inhibition in Axin2 qPCR assay (Axin2, PL45) | Pathway inhibition in Axin2 qPCR assay (Axin2, Panc04.03) | Pathway inhibition in Axin2 qPCR assay (Axin2, QGP-1) | Pathway inhibition in Axin2 qPCR assay (Axin2, T3M4)
Yes: Pathway inhibition in Axin2 qPCR assay (Axin2, BxPC3) | Pathway inhibition in Axin2 qPCR assay (Axin2, Capan-2) | Pathway inhibition in Axin2 qPCR assay (Axin2, HPAFII) | Pathway inhibition in Axin2 qPCR assay (Axin2, HuPT3) | Pathway inhibition in Axin2 qPCR assay (Axin2, KP-1NL) | Pathway inhibition in Axin2 qPCR assay (Axin2, KP1-N) | Pathway inhibition in Axin2 qPCR assay (Axin2, KP3) | Pathway inhibition in Axin2 qPCR assay (Axin2, PANC-1) | Pathway inhibition in Axin2 qPCR assay (Axin2, PK1) | Pathway inhibition in Axin2 qPCR assay (Axin2, PK59) | Pathway inhibition in Axin2 qPCR assay (Axin2, PSN-1) | Pathway inhibition in Axin2 qPCR assay (Axin2, PaTu-8902) | Pathway inhibition in Axin2 qPCR assay (Axin2, PaTu-8988S) | Pathway inhibition in Axin2 qPCR assay (Axin2, Panc03.27) | Pathway inhibition in Axin2 qPCR assay (Axin2, Panc05.04) | Pathway inhibition in Axin2 qPCR assay (Axin2, Panc10.05) | Pathway inhibition in Axin2 qPCR assay (Axin2, SU86.86) | Pathway inhibition in Axin2 qPCR assay (Axin2, SUIT-2) | Pathway inhibition in Axin2 qPCR assay (Axin2, SW1990)
strongly inhibited: proliferation in soft agar assay (HPAFII) | proliferation in soft agar assay (PaTu-8988S)
not: proliferation in soft agar assay (PK1)
